Measured values published in US20220132856A1, “PHOTOSENSITIZER AND CHELATING AGENT COMBINATIONS FOR USE AS INSECTICIDES” (SUNCOR ENERGY INC., priority 2019, published 2022).

Assays:
[1] = test system: potato aphids (Macrosiphum euphorbiae); conditions: for Mean Insects Mortality, % 24 HAT / Mean Insects Mortality, % 48 HAT: LED light exposure 14 h after treatment
Protocol: Potato aphids (Macrosiphum euphorbiae) were obtained from a colony maintained on Bell pepper (Capsicum annuum L.) plants grown in 1-gal plastic pots containing soil mix for greenhouse use (Sunshine LC1, Sun Gro Horticulture Canada Ltd.). Plants were watered as needed and fertilized twice a week with 20-20-20 water soluble fertilizers. Host plants were not exposed to pesticide treatments.
Pepper leaves infested with aphid nymphs were collected and each leaf was placed in 50 ml vials filled with water. Vials were covered with the lead with a small opening to prevent insects from drowning. Vials with host plant leaf infested with insects were placed in 500 ml transparent plastic containers and covered with transparent leads.
All treatments were applied as a fine spray using a hand-held plastic spray bottle. Each treatment was replicated 4 times. Water treatment was used as a Control.
After 14 h of exposure to LED light or dark insects were kept at a regular 14 h/10 h (light/night) photoperiod. Containers with insects were arranged in a randomized fashion. The experimental rack was placed in the Plant Growth Room at 24-25° C.
The number of live aphids on each leaf (replicate/container) was counted before application of the treatments, as well as 24 h and 48 h after the treatments. The insects were examined using 10× magnifying glass. Aphids were considered dead if no movement was detected after mechanical stimulation with the paintbrush.
Percentage of mortality was calculated by using the numbers of live and dead aphids. Percentage of mortality was rated as zero, when number of insects in the sample increased during the experiment (aphids females gave birth to nymphs).

[2] = test system: Silverleaf whitefly (Bemesia argentifolii); assay: Silverleaf whitefly suppression on sprayed poinsettia (Example 4); assay type: in vivo; conditions: whitefly nymphs, two sprays 7 days apart, sunlight 2 days; for Insects Suppression, % 6 DAT2: 6 days after second application; for Insects Suppression, % 13 DAT2: 13 days after second application
Protocol: The experiments were conducted in a greenhouse. Whiteflies were maintained on Common Poinsettia plants (Euphorbia pulcherrima) cv Prestige Red in the Greenhouse. Host plants and experimental plants were not initially exposed to pesticide treatments.
Experimental poinsettia plants were grown in 6.5″ plastic pots filled with Sunshine #4 soil mix. The plants were irrigated every day and soluble fertilizer 20-20-20 @ 200 ppm was applied twice weekly.
The poinsettia plants were placed into a whitefly infected greenhouse for 30 days to obtain uniform colonies of insect nymphs on the plants. After 30 days, the infested plants were moved from the infested greenhouse and placed outside of the greenhouse for a two-day adaptation period prior to the treatment. Whitefly nymph population was counted one day prior to the treatment using the discs method.
(§1) Two 5.47 cm^2 discs were taken from each replicate, insects were observed under a stereoscope and counted. The discs were taken from the randomly collected leaves from the mid to upper strata areas of the plant as this area is preferred by insects for eggs laying and nymphs development. Upon initiation of the experiment the whitefly population was considered uniform.
Treatments were applied two times with a 7-day interval using CO2 backpack sprayer with a single hollow cone nozzle (TVXK-3) at 40 psi. Plants were thoroughly sprayed with tested treatments and immediately exposed to direct sunlight for 2 days before returning to the greenhouse setting. For each treatment, six single plant replicates were used. After 2 days of outside sun exposure, all plants were carefully moved into the separate greenhouse and placed on a wire mesh bench in a Completely Randomized design. A second application of treatments was made 7 days after the first application using the same methodology.
The number of whitefly nymphs per disc was counted at 6 and 13 days after second foliar application (6 DAT2, 13DAT2). The Plants were evaluated for phytotoxicity at 6 days after each foliar spray.

[3] = test system: Common Poinsettia plants (Euphorbia pulcherrima) cv Prestige Red; assay: Phytotoxicity on poinsettia plants (Example 4)
[4] = test system: German cockroach (Blatella germanica); assay: German cockroach nymph suppression, treatment fed in 1% sucrose solution, light or dark; assay type: in vivo; conditions: cockroach nymphs
Protocol: A small German cockroach colony (Blatella germanica) was purchased from Benzon Research (USA). Cockroach mix sex nymphs were used as model insect.
The experiments were conducted in a lab. Insectary at 25° C. in light and dark conditions. Light condition: 12 h light/12 h dark photoperiod. During the light period insects were exposed to Spectrum Physio Spec Indoor LED light 250 μmol m^−2 s^−1 Dark condition: insects were kept in complete dark. Insects were fed prior to treatments with 1% sucrose solution and were anesthetizing in the fridge for a few minutes before handling.
Ten homogenous cockroach nymphs (3-4 instar) were carefully transferred into each half pint clear glass jar abraded internally to provide surface for climbing and lined with 9 cm in diameter filter paper. The treatments were administered to cockroaches in a 1% sucrose solution positioned in 10 ml glass vials abraded externally for easy climbing insects and placed in jars. Fresh treatment solutions were replaced each 3 days. Glass jars were covered with mesh. […] Completely randomized design with 4 replications per treatment was used.
Treated insects were kept under specific conditions for 14 days and mortality count was performed at 7 and 14 days after exposure to treatments.

[5] = test system: Common Poinsettia plants (Euphorbia pulcherrima); conditions: 0=healthy plants, 10=dead plants
Protocol: Poinsettia plants were evaluated for phytotoxicity after treatments. Phytotoxicity on the plants was rated 0 to 10, where 0=healthy plants, 10=dead plants at 6 DAA and 13DAA. Ratings were based on visual observations for symptoms such as chlorosis, necrosis, deformation, stunting and compared to plants in the untreated control.

[6] = test system: Silverleaf whitefly (Bemesia argentifolii); assay: Silverleaf whitefly live nymph count on sprayed poinsettia (Example 3); assay type: in vivo; conditions: for Mean number of whitefly live nymphs/sample −1 DAA: 1 day before treatments application (baseline); for Mean number of whitefly live nymphs/sample 6 DAA: 6 days after first application, sunlight 8 h after spray; for Mean number of whitefly live nymphs/sample 13 DAA: 13 days after first application (6 days after application 2); for Mean number of whitefly live nymphs/sample 20 DAA: 20 days after first application (13 days after application 2); for Mean number of whitefly live nymphs/sample 28 DAA: 28 days after application 1 (21 days after application 2)
Protocol: The experiments were conducted in a greenhouse. Whiteflies were maintained on Common Poinsettia plants (Euphorbia pulcherrima) in the Greenhouse. Host plants and experimental plants were not initially exposed to pesticide treatments.
Experimental poinsettia plants were grown from the plug stage in 6.5″ plastic pots filled with Sunshine #4 soil mix. The plants were irrigated every day and soluble fertilizer 20-20-20 @ 200 ppm was applied twice weekly.
The poinsettia plants were placed for 7 days to whitefly infected the greenhouse to obtain uniform colonies of insect nymphs on introduced plants. After 7 days, the plants were removed from the infested greenhouse and whitefly nymph population was counted using the discs method.
as §1, with “each plant” for “each”, “taken” for “taken from the randomly collected leaves”
Treatments were applied with CO2 backpack sprayer with a single solid cone nozzle (TG1) at 60 psi. Plants were thoroughly sprayed with tested treatments and immediately exposed to direct sunlight for 8 h before returning to the greenhouse setting. For each treatment, five single plant replicates were used. After 8 h of outside sun exposure all plants were carefully moved into the greenhouse and placed on a wire mesh bench in RCB design. A second application of treatments was made 7 days after the first application using the same methodology.
The number of whitefly nymphs per disc was counted at 1 day before treatments application (DAA), 6 days after first application (DAA), 13 days after first application (or 6 days after application 2), 20 days after first application 1 (or 13 days after application 2) and 28 days after application 1 (or 21 days after application 2).

[7] = test system: Citrus Mealybug (Planococcus citri Risso); assay: Mealybug exposure to direct spray on plants (coleus shoots), instar mortality; assay type: in vivo
Protocol: (§2) Colonies of Citrus Mealybug (Planococcus citri Risso) were maintained on Coleus plants (Solenostemon Scutellarioides L. Codd) grown in a Greenhouse under 24±4° C. and 16 h light/8 h dark photoperiod. […] Host plants were not initially exposed to pesticide treatments.
(§3) Small crowns of coleus shoots (4-6 cm in height, 6-7 leaves) were excised from the mature healthy plant and inserted into water-filled 50 ml plastic vials.
(§4) Homogenous mealybug instars-crawlers were carefully collected from the infested coleus plants using tip-moist soft fine paintbrush into a petri dish lined with filter paper. A total of 20 mealybug instars were released on upper leaves of each coleus shoot. […] Rack was located in the Plant Growth Room at 24-25° C.
(§5) Each treatment was replicated 4 times. Water treatment was used as a Control.
(§6) Insects were examined using 10×magnifying glass. […] The number of live and dead insects were recorded. Insect mortality was assessed for up to 96 hours after treatment (HAT-hours after treatment).
(§7) Percentage of citrus mealybug mortality for each treatment was calculated and data was subjected to One-way ANOVA combine with All Pairwise Multiple Comparison Procedures using the Fisher protected LSD mean separation test, […].
Mealybug were introduced to coleus shoots. Two hours later, the shoots were sprayed with photosensitizer and placed under the light for 14 hours.

[8] = test system: Citrus Mealybug (Planococcus citri Risso); assay: Mealybug exposure to direct spray in petri dishes, instar mortality; assay type: in vivo; conditions: mealybug instars sprayed in petri dishes, simulated daylight (LED) 14 h
Protocol: as §2, §3, §4, §5, §6, §7
Mealybug instars were transferred into plastic containers lined with filter paper, sprayed and immediately exposed to light for […]. […]

## O=C([O-])CN(CCN(CC(=O)[O-])CC(=O)O)CC(=O)O.[Na+].[Na+] [0.1% Na2EDTA, Na2EDTA]
[1]; 24 HAT
  Mean Insects Mortality, % 24 HAT: 6%
[1]; 48 HAT
  Mean Insects Mortality, % 48 HAT: 20%
[2]
  Insects Suppression, % 6 DAT2: 36%
  Insects Suppression, % 13 DAT2: 31%
[3]
  Phytotoxicity % 13 DAT2: 0%
[4]; LED 250 μmol m^−2 s^−1, 12 h light/12 h dark
  Insects Suppression %, 14 DAT, Light (12/12 h light-dark): 33%
[4]; complete dark
  Insects Suppression %, 14 DAT, Dark: 0%
[5]
  Phytotoxicity (0-10) 6 DAA: 0
  Phytotoxicity (0-10) 13 DAA: 0
  Phytotoxicity (0-10) 20 DAA: 0
  Phytotoxicity (0-10) 28 DAA: 0
[6]
  Mean number of whitefly live nymphs/sample −1 DAA: 93 nymphs/sample
  Mean number of whitefly live nymphs/sample 6 DAA: 53 nymphs/sample
  Mean number of whitefly live nymphs/sample 13 DAA: 69.7 nymphs/sample
  Mean number of whitefly live nymphs/sample 20 DAA: 89.9 nymphs/sample
  Mean number of whitefly live nymphs/sample 28 DAA: 44.3 nymphs/sample

## C=CC1=C(C)c2cc3[nH]c(cc4nc(cc5[nH]c(cc1n2)c(C)c5CCC(=O)[O-])C(CCC(=O)[O-])=C4C)c(C)c3C=C.[Na+].[Na+] [0.1% PPIX, Protoporphyrin sodium salts]
[2]
  Insects Suppression, % 6 DAT2: 41%
  Insects Suppression, % 13 DAT2: 28%
[3]
  Phytotoxicity % 13 DAT2: 0%

## O=S(=O)([O-])c1ccc(-c2c3nc(c(-c4ccc(S(=O)(=O)[O-])cc4)c4ccc([nH]4)c(-c4ccc(S(=O)(=O)O)cc4)c4nc(c(-c5ccc(S(=O)(=O)[O-])cc5)c5ccc2[nH]5)C=C4)C=C3)cc1.[Na+].[Na+].[Na+] [0.1% TPPS-Na3, meso-tetra-(4-sulfonatophenyl) porphyrin trisodium salts]
[2]
  Insects Suppression, % 6 DAT2: 37%
  Insects Suppression, % 13 DAT2: 52%
[3]
  Phytotoxicity % 13 DAT2: 0%

## Mg-Chlorophyllin [0.2 wt % MgChln]
[1]; 24 HAT
  Mean Insects Mortality, % 24 HAT: 24%
[1]; 48 HAT
  Mean Insects Mortality, % 48 HAT: 24%
[1]; no light exposure (dark), dark exposure 24 h, 24 HAT
  Mean Insect Mortality, % 24 HAT: 5%
[1]; no light exposure (dark), dark exposure 24 h, 48 HAT
  Mean Insect Mortality, % 48 HAT: 17%
[7]; infested plants sprayed, at 24 and 96 HAT
  Insect mortality, in words: significant insect mortality
[7]; mealybugs on coleus shoots sprayed, light 14 h, 24 hours after treatment
  Insect Mortality, % 24 HAT: 50%
[7]; mealybugs on coleus shoots sprayed, light 14 h, 96 hours after treatment
  Insect Mortality, % 96 HAT: 68.8%
[5]
  Phytotoxicity (0-10) 6 DAA: 0
  Phytotoxicity (0-10) 13 DAA: 0
  Phytotoxicity (0-10) 20 DAA: 0
  Phytotoxicity (0-10) 28 DAA: 0
[8]; 24 hours after treatment
  Insect Mortality, % 24 HAT: 32.8%
[8]; 96 hours after treatment
  Insect Mortality, % 96 HAT: 46.3%
[6]
  Mean number of whitefly live nymphs/sample −1 DAA: 111.4 nymphs/sample
  Mean number of whitefly live nymphs/sample 6 DAA: 68 nymphs/sample
  Mean number of whitefly live nymphs/sample 13 DAA: 56.6 nymphs/sample
  Mean number of whitefly live nymphs/sample 20 DAA: 74.8 nymphs/sample
  Mean number of whitefly live nymphs/sample 28 DAA: 30.1 nymphs/sample

## chlorin e6 [0.1% Ce6]
[2]
  Insects Suppression, % 6 DAT2: 27%
  Insects Suppression, % 13 DAT2: 28%
[3]
  Phytotoxicity % 13 DAT2: 0%
